Numbered stars: 1 amine (or outer) side, 2 acyl side, 3 side chain; on linkers, the order of the positions; unused ones are H or OH. Bridge positions count the residues as written; N and C are the ends. Square brackets hold non-standard residues; d marks the D form. Peptide text beside a SMILES is read from it. * marks the point of attachment. hTyr(3S-OH,4S-OH,3'-OSO3H) = N[C@H](C(=O)O)[C@H](O)[C@@H](O)c1ccc(O)c(OS(=O)(=O)O)c1; Orn(4R-OH,5R-OH) = O=C([C@H](C[C@@H](O)[C@@H](O)N[*:3])N[*:1])[*:2]; Pro(3S-OH,4S-Me) = C[C@H]1CN[C@H](C(=O)O)[C@H]1O; X1 = CCCCCOc1ccc(-c2cc(-c3ccc(C(=O)*)cc3)no2)cc1; Gln(3R-OH) = NC(=O)C[C@@H](O)[C@H](N)C(=O)O; Hyp = O=C(O)[C@@H]1C[C@@H](O)CN1
Columns and labels:
[1] = tested on: Candida albicans TIMM1623; assay: In vivo test: murine systemic infection caused by Candida albicans; settings: ICR mice, day 21 after infection, once daily, 7 times
Method: In vivo activity was evaluated in murine systemic infection caused by Candida albicans.
(§1) Mice (4-week old (at infection) male ICR mice, 5 mice per group) were intraperitoneally administered 200 mg/kg of cyclophosphamide 4 days before infection and 100 mg/kg on the following day after infection. Candida albicans TIMM1623, which were prepared from overnight culture on a Sabouraud Dextrose Agar plate at 35° C., were suspended in sterile physiological saline solution. After counting cell number of the suspension with a biological microscope, the suspension was diluted with sterile physiological saline solution to give the inoculum solution. Systemic infection was induced in mice by intravenous inoculation of 0.2 mL of the inoculum solution into the tail vein (2.6×10^4 CFU/mouse).
(§2) The test compound was dissolved in a small amount of 0.1 mol/L hydrochloric acid, and the solution was diluted with sterilized water to prepare predetermined concentrations.
Fluconazole (a commercial name: FLANOS intravenous drip solution 100 mg, made by Toyama Chemical Co., Ltd.) was diluted with sterilized water to prepare fluconazole solutions of predetermined concentrations.
Micafungin sodium (a commercial name: Funguard 50 mg for infusion, made by Astellas Pharma Inc.) was dissolved in sterile physiological saline solution to prepare micafungin solutions of predetermined concentrations.
Amphotericin B for injection (a commercial name: FUNGIZONE, made by Bristol pharmaceutical Ltd.) was dissolved in 5% glucose to prepare an amphotericin B solution of a predetermined concentration.
The test compound (0.25 and 0.5 mg/kg) and fluconazole (0.25 and 0.5 mg/kg) were orally administered. Micafungin (0.125 and 0.25 mg/kg) and amphotericin B (0.1 mg/kg) were subcutaneously administered. These administrations were conducted once 2 hours after the infection and then once daily for the following 6 days, totaling 7 times.
On one hand each of the agents was administered singly, on the other hand each of the agents was administered immediately after the test compound was administered.
The efficacy was evaluated on the basis of the survival rate on day 21 after infection.

[2] = Toxicity on consecutive oral administration to mice; type: in vivo; settings: orally administered consecutively at 25 mg/kg for 2 weeks
[3] = tested on: Aspergillus fumigatus IFM46895; assay: In vivo test: murine systemic infection caused by Aspergillus fumigatus; settings: for Survival rate: ICR mice, day 21 after infection, once daily, 7 times
Method: In vivo activity was evaluated in murine systemic infection caused by Aspergillus fumigatus.
Mice (4-week old (at infection) male ICR mice, 5 mice per group) were intraperitoneally administered 200 mg/kg of cyclophosphamide 4 days before infection and 100 mg/kg on the following day after infection. Conidia suspension of Aspergillus fumigatus IFM46895 was diluted with sterile physiological saline solution containing 0.05% Tween 80 (manufactured by Difco Laboratories) in sterile physiological saline solution to give the inoculum solution. Systemic infection was induced in mice by intravenous inoculation of 0.2 mL of the inoculum solution into the tail vein (1.6×10^5 CFU/mouse).
as §2
Flucytosine (made by Sigma Company) was suspended in 0.5% methyl cellulose liquid to prepare predetermined concentrations for administration.
Voriconazole (a commercial name: Vfend 200 mg for intravenous use, made by Pfizer Inc.) was diluted with sterilized water to prepare voriconazole solutions of predetermined concentrations for administration.
The test compound (1 and 3 mg/kg), flucytosine (50 and 250 mg/kg) and voriconazole (5 and 10 mg/kg) were orally administered. The administrations were conducted once 2 hours after the infection and then once daily for the following 6 days, totaling 7 times.
(§3) On one hand each of the agents was administered singly, on the other hand each of the agents was administered immediately after the test compound was administered. The efficacy was evaluated on the basis of the survival rate on day 21 after infection.

[4] = tested on: Cryptococcus neoformans ATCC90112; assay: In vivo test: murine systematic infection caused by Cryptococcus neoformans; settings: ICR mice, day 21 after infection, once daily, 7 times
Method: In vivo activity was evaluated in murine systematic infection caused by Cryptococcus neoformans.
as §1, with “Cryptococcus neoformans ATCC90112 cells,” for “Candida albicans TIMM1623,”, “Systematic” for “Systemic”, “injection” for “inoculation”, “(8.5×10^4” for “(2.6×10^4”
The test compound was dissolved in a small amount of 0.1 mol/L hydrochloric acid, and the solution was diluted with sterilized water to prepare predetermined concentrations. […]
as §3

[5] = tested on: Aspergillus fumigatus IFM46895; settings: general statement ("as usual"); cited from earlier work

CCCCCOc1ccc(-c2cc(-c3ccc(C(=O)N[C@H]4C[C@@H](O)[C@@H](O)NC(=O)[C@@H]5[C@@H](O)[C@@H](C)CN5C(=O)[C@H]([C@H](O)CC(N)=O)NC(=O)[C@H]([C@H](O)[C@@H](O)c5ccc(O)c(OS(=O)(=O)O)c5)NC(=O)[C@@H]5C[C@@H](O)CN5C(=O)[C@H]([C@@H](C)O)NC4=O)cc3)no2)cc1 [MCFG, micafungin] (X1-[Orn(4R-OH,5R-OH)]T[Hyp][hTyr(3S-OH,4S-OH,3'-OSO3H)][Gln(3R-OH)][Pro(3S-OH,4S-Me)]; lactam 1-C)
Survival rate ([1]; MCFG 0.125 mg/kg subcutaneously): 0
Survival rate ([1]; MCFG 0.25 mg/kg subcutaneously): 40

CCCCOC(=O)N=C(N)c1ccc(OCCCC2CCN(CCCOc3ccc(C(N)=NC(=O)OCCCC)cc3)CC2)cc1 [Test compound, 4-{3-[4-(3-{4-[amino(butoxycarbonylimino)methyl]phenoxy}propyl)-1-piperidinyl]propoxy}-N′-(butoxycarbonyl)benzamidine]
Toxicity [2]: did not show toxicity at all
Survival rate ([1]; test compound 0.5 mg/kg orally): 0
Survival rate ([3]; test compound 1 mg/kg orally): 0
Survival rate ([3]; test compound 3 mg/kg orally): 20
Survival rate ([4]; test compound 1 mg/kg orally): 0

C[C@@H]1[C@H](O)[C@@H](C)/C=C/C=C/C=C/C=C/C=C/C=C/C=C/[C@H](O[C@@H]2O[C@H](C)[C@@H](O)[C@H](N)[C@@H]2O)C[C@@H]2O[C@](O)(C[C@@H](O)C[C@@H](O)[C@H](O)CC[C@@H](O)C[C@@H](O)CC(=O)O[C@H]1C)C[C@H](O)[C@H]2C(=O)O [AMPH-B, amphotericin B]
Survival rate ([1]; AMPH-B 0.1 mg/kg subcutaneously): 20

Nc1[nH]c(=O)ncc1F [Example 5-FC, flucytosine]
Survival rate ([3]; 5-FC 250 mg/kg orally): 0
Therapeutic effect ([3]; murine systemic infection, flucytosine 250 mg/kg administered singly): no therapeutic effect
Effect against Aspergillus fumigatus [5]: almost no effect

C[C@@H](c1ncncc1F)[C@](O)(Cn1cncn1)c1ccc(F)cc1F [VCZ, voriconazole]
Survival rate ([3]; VCZ 10 mg/kg orally): 0

OC(Cn1cncn1)(Cn1cncn1)c1ccc(F)cc1F [FLCZ, fluconazole]
Survival rate ([1]; FLCZ 0.25 mg/kg orally): 20
Survival rate ([1]; FLCZ 0.5 mg/kg orally): 40
Survival rate ([4]; FLCZ 20 mg/kg orally): 20

Reference: patent publication US8173157B2, “Pharmaceutical composition comprising phenylamidine derivative and method of using the pharmaceutical composition in combination with antifungal agent” (Toyama Chemical Co., Ltd., priority 2006, dated 2012)
